The results in this text go back to US20030165475A1, “Non-lethal methods for conditioning a recipient for bone marrow transplantation” (priority 1993, published 2003).

The test has as its system B10 mice. The following applies: for NO. OF ANIMALS ENGRAFTED: 300 cGy.

Read-outs that look alike come from different tables or passages of the source.

Method: Recipients were characterized for donor cell engraftment using flow cytometry (FACS II, Becton Dickinson; Mountain View, Calif.) to determine the presence of peripheral blood lymphocytes bearing H-2^b, H-2^k, and H-2^d encoded antigens as described (Jeffries et al., 1985, J Exp Med 117:127).
Briefly, peripheral blood was collected through tail bleeding into heparinized plastic serum vials. 2001 μl of Medium 199 (Gibco Laboratories; Grand Island, N.Y.) were added to each vial. After thorough mixing, the suspension was layered over 1.5 ml of room temperature Lymphocyte Separation Medium (LSM) (Organon Teknika; Durham, N.C.) and centrifuged at 37° C. (400g×20 minutes). The buffy coat layer was aspirated from the Medium 199-LSM interface and washed with medium. Lymphocytes were stained with fluorescein-conjugated monoclonal antibodies for donor- and host-specific class I antibodies H2K^b (AF6-88.5), H2K^d (SF1-1.1), and H2K^k (AF3-12.1) (Pharmingen) conjugated with fluorescein and lineage markers conjugated with PE α β-TCR (H57-597), CD4 (L3T4), CD8 (Ly2), NK1.1 (PK136), and CD45R/B220 (RA3-603) (Pharmingen) and MAC-1 (M1/70) (Boehringer Mannheim, Indianapolis, Ind.) for 45 minutes at 4° C.

Regarding `O=P1(N(CCCl)CCCl)NCCCO1` (stereo not shown) [CyP, cyclophosphamide], the recipients engrafted result (50 mg/kg CyP or more on day 2 with ALG plus 300 cGy TBI) is “more than 85%”. In addition, the “NO. OF ANIMALS ENGRAFTED” value is, setting by setting: (CyP 50 mg/kg day 2, 1 MG ALG) 2/2; (CyP 50 mg/kg day 2, 2 MG ALG) 1/1; (CyP 50 mg/kg day 2, TOTAL) 3/3; (CyP 100 mg/kg day 2, 1 MG ALG) 2/2; (CyP 100 mg/kg day 2, 2 MG ALG) 2/2; (CyP 100 mg/kg day 2, TOTAL) 4/4. Also, the “NO. OF ANIMALS ENGRAFTED” value reads like this: (CyP 150 mg/kg day 2, 1 MG ALG) 3/4; (CyP 150 mg/kg day 2, 2 MG ALG) 2/2; (CyP 150 mg/kg day 2, TOTAL) 5/6; (CyP 200 mg/kg day 2, 1 MG ALG) 5/6; (CyP 200 mg/kg day 2, 2 MG ALG) 7/8; (CyP 200 mg/kg day 2, TOTAL) 12/14.
